Test results published in patent publication US4778796A, “ω-(3-pyridyl)alkenamide derivatives and anti-allergenic pharmaceutical compositions containing same” (Dainippon Pharmaceutical Co., Ltd., priority 1985, dated 1988).
Where a name gives a salt, the structure may show the parent alone. Read-outs that look alike come from different tables or passages of the source.

Key:
[1] = system: passive cutaneous anaphylaxis (PCA); assay: Inhibitory effect on passive cutaneous anaphylaxis (PCA) in rats; assay type: in vivo, rat (male Wistar); settings: Rattus norvegicus, po, read-out: Inhibition (PCA in rats)
Protocol: (1) Inhibitory effect on passive cutaneous anaphylaxis (PCA) in rats:
This test was carried out by the method of Perper et al. [cf.
Male Wistar rats (130-180 g) were injected with 0.1 ml of a dilute solution of mouse antiserum to egg albumin in two sites of the shaved ventral skin. Forty-eight hours later each rat was challenged by an intravenous injection of 2 mg of the antigen together with 1 ml of a 0.5% Evan's blue saline solution. The rats were sacrificed 30 minutes after the challenge. The area of the blueing lesions was measured on the undersurface of the skin. The average value of the two lesions of each rat was regarded as the response of the rat. Test compounds in a dose of 20 mg/kg, dissolved or suspended in a 0.5% aqueous tragacanth solution, were administered orally 1 hour before the antigen challenge. The inhibitory rate was determined by comparing the responses of the rats given each test compound with those of the rats given only a 0.5% aqueous tragacanth solution. Each group of 3 rats was used for each test compound. The mouse antiserum to egg albumin was produced by the method of Levine and Vaz [cf. Int. Arch. Allergy Appl.

[2] = system: experimental asthma; assay: Inhibitory effect on experimental asthma in rats; assay type: in vivo, rat (male Wistar); settings: Rattus norvegicus, po
Protocol: (2) Inhibitory effect on experimental asthma in rats: This test was carried out by the method of Church and Miller [cf. Brit. […] Male Wistar rats (200-250 g) were sensitized by an intraperitoneal injection of 1 ml of a 0.01% egg albumin solution containing 1 mg of Al(OH)3. Two weeks later, the rats were anesthetized with 1.3 g/kg of urethane. The trachea and jugular vein were cannulated. Respiratory volume and velocity were measured by attaching one end of the tracheal cannula to respiratory volume meter connected to a carrier amplifier and an integrator. The rats were challenged by an intravenous injection of 4 mg/kg of egg ablumin 30 minutes after the anesthesia. Test compounds, dissolved or suspended in a 0.5% aqueous tragacanth solution, were administered orally 1 hour before the antigen challenge. Each group of 4 rats was used for each dose of the test compound. ED50 values were calculated from the best fit linear regression line of inhibitory rates of respiratory volume and velocity in each dose.

[3] = system: contact hypersensitivity to oxazolone; assay: Inhibitory effect on contact hypersensitivity to oxazolone in mice; assay type: in vivo, mouse (male ICR); settings: topical, 1.0 mg/ear; 24 hours after challenge
Protocol: (3) Inhibitory effect on contact hypersensitivity to oxazolone in mice:
This test was carried out by the method of Evans et al. [cf. Brit.
Male ICR mice (18-20 g) were used. The abdominal region of the mice was carefully clipped with an electric clipper, and 0.1 ml of a 0.5 w/v % oxazolone solution in absolute ethanol was gently rubbed into the clipped area. Five days after the sensitization 20 μl of a 0.5 w/v % oxazolone solution in acetone or chloroform, or the solution containing test compound was applied to both sides of the right ear. The left ear was not treated. Twenty-four hours after the challenge, the animals were sacrificed with diethyl ether. The circular parts (5.5 mm in diameter) of both ears were removed by punching and then weighed. The inhibitory rate was determined by comparing the ear swelling of the mice treated with oxazolone containing test compound with that of the mice treated with oxazolone. Each group of 8 mice was used for each dose of the test compound.

[4] = molecular target: T1, 5-lipoxygenase (Cavia porcellus, UniProt A0A286X958); assay: Inhibitory effect on 5-lipoxygenase activity in guinea pig leukocytes; assay type: biochemical, guinea pig (male Hartley); settings: 10^-4 M
T1 construct: The cytosol fraction of peritoneal exudate cells from male Hartley guinea pigs (400-700 g) was used as 5-lipoxygenase; from tissue; host or cells: cytosol fraction of peritoneal exudate cells (leukocytes) of male Hartley guinea pigs
T1 sequence (A0A286X958 1-674): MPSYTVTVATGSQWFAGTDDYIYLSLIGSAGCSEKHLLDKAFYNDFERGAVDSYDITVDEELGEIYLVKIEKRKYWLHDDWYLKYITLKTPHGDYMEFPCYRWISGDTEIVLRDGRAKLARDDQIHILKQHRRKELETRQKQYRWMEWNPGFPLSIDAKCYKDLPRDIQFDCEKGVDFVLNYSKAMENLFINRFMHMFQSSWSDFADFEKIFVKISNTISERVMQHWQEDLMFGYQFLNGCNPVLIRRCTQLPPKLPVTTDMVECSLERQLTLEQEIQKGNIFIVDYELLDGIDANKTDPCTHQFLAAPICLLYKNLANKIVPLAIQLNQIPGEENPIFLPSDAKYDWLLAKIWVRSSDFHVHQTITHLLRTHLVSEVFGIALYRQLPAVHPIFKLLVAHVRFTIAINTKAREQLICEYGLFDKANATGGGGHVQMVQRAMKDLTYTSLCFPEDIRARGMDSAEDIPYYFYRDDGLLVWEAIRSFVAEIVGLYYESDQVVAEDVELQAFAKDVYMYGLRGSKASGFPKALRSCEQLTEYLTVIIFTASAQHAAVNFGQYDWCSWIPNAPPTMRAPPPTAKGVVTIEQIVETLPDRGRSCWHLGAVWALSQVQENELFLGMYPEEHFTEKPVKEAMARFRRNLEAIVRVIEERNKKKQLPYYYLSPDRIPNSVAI
Protocol: (1) Inhibitory effect on 5-lipoxygenase activity in guinea pig leukocytes:
This test was carried out by the method of Miyamoto and Obata (cf. "Perspectives in Prostaglandin Research," ed. by Y. Shiokawa et al., Excepta Medica, Amsterdam-Oxford-Princeton, 1983, p78) with minor modifications.
The cytosol fraction of peritoneal exudate cells from male Hartley guinea pigs (400-700 g) was used as 5-lipoxygenase. The standard reaction mixture contained 50 mM potassium phosphate buffer, 1 mM CaCl2, 1 mM glutathione, 1 mM adenosine triphosphoric acid, 10 μM indomethacin and the enzyme. The mixture was incubated for 5 minutes at 30° C. after addition of [1-^14 C]arachidonic acid (0.02 μCi). The reaction was terminated by addition of 0.6 ml of the cold organic solvents (diethyl ether/methanol/0.2M citric acid=30/4/1). The organic layer (300 μl) was applied onto a precoated silica gel 60F254 glass plate (E. Merck, West Germany). Radioactivity on the plate was monitored by a radiochromatogram scanner (Packard, U.S.A.). 5-Lipoxygenase activity was calculated according to the following equation. [formula]
The effects of the test compounds were expressed in terms of percent inhibition.

[5] = system: histamine-induced contraction of isolated guinea pig trachea; assay: Inhibitory effect on histamine-induced contraction of isolated guinea pig trachea; parameters: species or system guinea pig (male Hartley); settings: 3×10^-5 M histamine; isolated guinea pig trachea; read-out: Anti-hist. activity IC50
Protocol: (2) Inhibitory effect on histamine-induced contraction of isolated guinea pig trachea:
Male Hartley guinea pigs (400-700 g) were used. Zig-zag strips of guinea pig trachea were prepared by the method of Emmerson and Mackay [cf. J. Pharm. […] Dose-response curves for histamine were obtained before and 5 minutes after the addition of test compounds. Inhibitory rate was calculated from contraction heights in 3×10^-5 M of histamine without vs. with test compound.

[6] = system: human basophils; assay: Inhibitory effect on histamine release induced by anti-human IgE antibody from healthy human basophils; assay type: cell-based; settings: Homo sapiens, read-out: Histamine release inhibit. IC50
Protocol: (3) Inhibitory effect on histamine release induced by anti-human IgE antibody from healthy human basophils:
Basophils from nonallergic volunteers were collected by the method of Levy and Osler [cf. […] The cells were washed once with a cold Tris-A buffer at pH 7.4 (25 mM Tris, 120 mM NaCl, 5 mM KCl and 0.03% human serum albumin) containing 4 mM EDTA and twice with Tris-A buffer. After washing, the cells were resuspended at 5-10×10^6 leukocytes/ml in Tris-ACM buffer at pH 7.6 (Tris-A buffer, 0.6 mM CaCl2 and 1 mM MgCl2). One ml of the cell suspension was incubated with 0.1 ml of a solution of test compound or vehicle for 15 minutes at 37° C., and then for further 45 minutes with 0.1 ml of anti-human IgE antibody. After ice-cooling, the reaction mixtures were centrifuged at 1,200 rpm for 8 minutes at 4° C. The supernatant fluids and the cells were analysed separately for histamine by a modification of the spectrophotofluorometric technique of Shore et al. [cf. […] Histamine release rate was calculated according to the following equation. [formula] A: total histamine (supernatant+cell) B: supernatant histamine without anti-IgE
C: supernatant histamine with anti-IgE
Inhibitory rate was calculated from histamine release rates without vs. with test compound.

[7] = Acute lethal toxicity in mice; settings: mouse, in vivo; oral, mortality observed for two weeks
Protocol: Test 3 Acute lethal toxicity in mice
Test compounds were suspended in a 0.5% aqueous tragacanth solution. LD50 values were calculated according to the method of Litchfield and Wilcoxon [cf. J. Pharmacol. Exp. Ther., 96, 99 (1949)].

## CN1CCC(=C2c3ccccc3CC(=O)c3sccc32)CC1 [Ketotifen fumarate, reference compound]
[1]
  inhibition in vivo at 20 mg/kg: 54.7%
[2]; read-out: ED50, respiratory velocity
  ED50: 20.5 mg/kg
[2]; read-out: ED50, respiratory volume
  ED50: 22.6 mg/kg
[3]
  % Inhibition of ear swelling: 49.0%
[4]
  5-lipoxygenase inhibiting activity (in words): did not exhibit any significant inhibiting activity
[4]; read-out: 5-Lipoxygenase inhibit. activity, Inhibition
  inhibition at 100 µM: 11.5%
[5]
  IC50: 2.9 nM
[6]
  IC50: > 100000 nM
[7]
  LD50 at 336 h: 537 mg/kg
